Strand notation (5' to 3'): a small letter for the sugar, then the base; units joined by * are phosphorothioate-linked, units joined directly phosphodiester-linked; [ ] holds rarer units or linkages, { } end groups; capitals alone tell only the bases. k = constrained ethyl (cEt); [5mC] = 5-methylcytosine; d = 2'-deoxy (DNA)
Tested on: Yap1 mRNA
Test: Antisense inhibition of human Yap1 in A-431 cells by cEt gapmers, single dose (Example 2, RTS4814)
Assay type: cell-based
Outline: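 A-431 cells (5,000/well) took up 2,000 nM 3-10-3 cEt gapmer by free uptake for ~48 h. Yap1 mRNA was quantified by qRT-PCR with primer probe set RTS4814, normalized to RIBOGREEN total RNA, and reported as % of untreated control.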

[1] = Table 25, Yap1 mRNA as percent of untreated control, 3-10-3 cEt gapmers targeting SEQ ID NO.: 1, and 2
[2] = Table 24, Yap1 mRNA as percent of untreated control, 3-10-3 cEt gapmers targeting SEQ ID NO.: 1, and 2
[3] = Table 5, A-431 cells, 5,000 cells per well, free uptake, 2,000 nM modified oligonucleotide, approx. 48 hours, RTS4814, normalized to RIBOGREEN, Yap1 mRNA relative to untreated control cells
[4] = Yap1 mRNA as percent of untreated control, A-431 cells, 3-10-3 cEt gapmers targeting SEQ ID NO.: 1, and 2, Table 30
[5] = Table 21, Yap1 mRNA, percent of untreated control, 3-10-3 cEt gapmers targeting SEQ ID NO.: 1 and 2
[6] = Table 18, A-431 cells, 5,000 cells per well, free uptake, 2,000 nM modified oligonucleotide, approx. 48 hours, RTS4814, normalized to RIBOGREEN, Yap1 mRNA as percent of untreated control
[7] = Table 20, Yap1 mRNA, percent of untreated control, 3-10-3 cEt gapmers targeting SEQ ID NO.: 1 and 2
[8] = Table 32, Yap1 mRNA, percent of untreated control, 3-10-3 cEt gapmers targeting SEQ ID NO.: 1, and 2
[9] = Table 23, Yap1 mRNA as percent of untreated control, 3-10-3 cEt gapmers, single dose
[10] = Table 6, A-431 cells, 5,000 cells per well, free uptake, 2,000 nM modified oligonucleotide, approx. 48 hours, RTS4814, normalized to RIBOGREEN, Yap1 mRNA relative to untreated control cells
[11] = Table 19, A-431 cells, 5,000 cells per well, free uptake, 2,000 nM modified oligonucleotide, approx. 48 hours, RTS4814, normalized to RIBOGREEN, Yap1 mRNA as percent of untreated control
[12] = A-431 cells, 5,000 cells per well, free uptake, 2,000 nM modified oligonucleotide, approx. 48 hours, RTS4814, normalized to RIBOGREEN, Table 4, asterisk (*) = targets amplicon region of primer probe set
[13] = Table 22, Yap1 mRNA as percent of untreated control, 3-10-3 cEt gapmers, single dose

1074667 (antisense k[5mC]*k[5mC]*k[5mC]*dA*dA*d[5mC]*dA*dA*d[5mC]*dA*dT*dG*d[5mC]*kT*kA*kT) [Compound 1074667]
YAP1 (% UTC) [1]: 15 % UTC

1074826 (kA*kA*kA*dT*d[5mC]*d[5mC]*dA*d[5mC]*d[5mC]*dT*dG*dA*dG*k[5mC]*kA*k[5mC]; antisense) [Compound 1074826]
YAP1 (% UTC) [2]: 51 % UTC

716374 (kG*kG*kT*d[5mC]*dA*dG*dT*dG*dT*d[5mC]*d[5mC]*d[5mC]*dA*kG*kG*kA; antisense) [Compound 716374]
YAP1 (% UTC) [3]: 54 % UTC

1074731 (antisense k[5mC]*kA*kG*dG*dT*dA*dT*d[5mC]*dA*d[5mC]*dA*dG*dT*kA*k[5mC]*kT) [Compound 1074731]
YAP1 (% UTC) [1]: 19 % UTC

1075664 (antisense kG*k[5mC]*kT*dA*dA*dA*dT*dA*dG*dG*dT*dG*dG*kT*kT*kA) [compound 1075664]
YAP1 (% UTC) [4]: 87 % UTC

1074823 (kG*kA*kG*d[5mC]*dA*d[5mC]*dT*d[5mC]*dA*dT*dT*dT*d[5mC]*kT*k[5mC]*kA; antisense) [Compound 1074823]
YAP1 (% UTC) [5]: 77 % UTC

1075236 (antisense kT*kA*kT*dA*dA*dT*dA*d[5mC]*d[5mC]*dA*d[5mC]*dA*dA*kA*kG*kT) [Compound 1075236]
YAP1 (% UTC) [6]: 81 % UTC

716488 (k[5mC]*kA*kT*dT*dA*dT*dT*dA*d[5mC]*dT*d[5mC]*d[5mC]*dT*kG*kT*kA; antisense) [Compound 716488]
YAP1 (% UTC) [3]: 67 % UTC

1074630 (antisense kA*kG*kA*dG*dA*dT*dT*dT*dT*dA*dT*dG*d[5mC]*k[5mC]*kT*kG) [Compound 1074630]
YAP1 (% UTC) [7]: 5 % UTC

1075762 (kG*kA*kT*dA*dA*dA*dT*dG*dG*dG*dT*dT*dG*kA*kT*kT; antisense) [compound 1075762]
YAP1 (% UTC) [8]: 20 % UTC

1076388 (kG*kA*kA*dA*dT*dA*dT*dT*d[5mC]*dG*dA*dG*dA*kA*kG*kA; antisense) [Compound 1076388]
YAP1 (% UTC) [6]: 6 % UTC

1075090 (kG*k[5mC]*kT*dT*dA*dT*dA*dA*dT*d[5mC]*dT*dT*dT*k[5mC]*kA*kG; antisense) [compound 1075090]
YAP1 (% UTC) [8]: 9 % UTC

1075338 (k[5mC]*k[5mC]*k[5mC]*dA*dA*dA*dA*dA*d[5mC]*dT*dA*dG*d[5mC]*kT*kT*kA; antisense) [Compound 1075338]
YAP1 (% UTC) [2]: 56 % UTC

1074377 (antisense kA*kA*kA*d[5mC]*dG*dG*dT*dT*d[5mC]*dT*dG*d[5mC]*dT*kG*kT*kG) [Compound 1074377]
YAP1 (% UTC) [9]: 52 % UTC

1075947 (k[5mC]*kT*kT*dT*dA*dT*dA*dG*dG*dA*dA*dT*dA*kG*kA*kG; antisense) [Compound 1075947]
YAP1 (% UTC) [1]: 95 % UTC

716543 (antisense kT*kA*kT*dT*dT*dG*dT*dA*dG*d[5mC]*dA*dA*dA*kG*kT*k[5mC]) [Compound 716543]
YAP1 (% UTC) [10]: 35 % UTC

1076421 (kA*kA*kT*dT*dA*dT*dG*dA*d[5mC]*d[5mC]*dT*d[5mC]*d[5mC]*kA*kT*kG; antisense) [Compound 1076421]
YAP1 (% UTC) [11]: 65 % UTC

716541 (antisense kT*kA*kA*dA*dG*dG*d[5mC]*dA*d[5mC]*dT*dA*d[5mC]*dA*kT*kT*kT) [Compound 716541]
YAP1 (% UTC) [12]: 92 % UTC

1076455 (antisense kA*k[5mC]*kT*dA*dA*dA*dT*dA*d[5mC]*dT*dT*dT*dT*kA*kG*k[5mC]) [Compound 1076455]
YAP1 (% UTC) [5]: 86 % UTC

1076485 (antisense kA*kA*kA*d[5mC]*dG*dA*dA*dA*d[5mC]*dG*dG*dG*dA*kA*kA*kT) [Compound 1076485]
YAP1 (% UTC) [11]: 55 % UTC

1075184 (k[5mC]*kA*kA*dG*dA*dA*d[5mC]*dA*d[5mC]*dT*dG*dG*dT*kA*kT*kT; antisense) [compound 1075184]
YAP1 (% UTC) [4]: 67 % UTC

1074665 (antisense kT*kT*kG*d[5mC]*dA*dT*dT*d[5mC]*dT*dA*dG*dG*dT*kA*kG*kA) [Compound 1074665]
YAP1 (% UTC) [9]: 17 % UTC

1074706 (antisense kT*kT*kA*dA*dT*dG*dG*d[5mC]*dA*dG*d[5mC]*dA*d[5mC]*kG*kG*kT) [compound 1074706]
YAP1 (% UTC) [8]: 48 % UTC

1075787 (k[5mC]*kT*kT*dA*dA*dG*dG*dA*dT*dT*dG*dG*d[5mC]*kT*kA*kT; antisense) [Compound 1075787]
YAP1 (% UTC) [1]: 28 % UTC

1074824 (k[5mC]*k[5mC]*kT*dG*dA*dG*d[5mC]*dA*d[5mC]*dT*d[5mC]*dA*dT*kT*kT*k[5mC]; antisense) [Compound 1074824]
YAP1 (% UTC) [13]: 53 % UTC

1076167 (kA*kA*kA*dT*dT*dT*dA*d[5mC]*dA*d[5mC]*d[5mC]*dA*d[5mC]*k[5mC]*kG*k[5mC]; antisense) [Compound 1076167]
YAP1 (% UTC) [5]: 33 % UTC

1076520 (antisense kA*kA*kT*dT*dA*dT*dA*dT*dG*d[5mC]*dA*dG*d[5mC]*kA*kG*k[5mC]) [Compound 1076520]
YAP1 (% UTC) [13]: 21 % UTC

1075082 (antisense k[5mC]*kT*kT*dT*dA*dG*dA*dT*dA*d[5mC]*dA*dA*dG*kA*kG*kG) [Compound 1075082]
YAP1 (% UTC) [2]: 80 % UTC

1076265 (kT*kA*kT*dT*dA*d[5mC]*d[5mC]*d[5mC]*dA*dA*dT*dA*dA*k[5mC]*k[5mC]*kA; antisense) [Compound 1076265]
YAP1 (% UTC) [9]: 9 % UTC

1075046 (antisense kA*kA*kA*dA*dT*dT*dA*dG*dA*d[5mC]*dT*d[5mC]*d[5mC]*k[5mC]*k[5mC]*k[5mC]) [Compound 1075046]
YAP1 (% UTC) [7]: 12 % UTC

1075782 (kT*kA*kT*dT*dA*dG*dG*dT*dT*dT*d[5mC]*d[5mC]*d[5mC]*kG*kT*kT; antisense) [Compound 1075782]
YAP1 (% UTC) [7]: 10 % UTC

1075141 (antisense kT*kA*kT*dA*d[5mC]*dG*dA*dG*dA*dA*dG*dT*dT*kG*kA*kA) [Compound 1075141]
YAP1 (% UTC) [11]: 54 % UTC

1076521 (antisense kA*k[5mC]*kT*dA*dA*dA*dG*dG*dA*dG*dT*d[5mC]*dA*kT*kG*kA) [Compound 1076521]
YAP1 (% UTC) [9]: 67 % UTC

1075474 (kT*kT*kT*dA*dA*dT*dA*dG*dG*d[5mC]*dT*d[5mC]*dT*kA*kT*k[5mC]; antisense) [compound 1075474]
YAP1 (% UTC) [8]: 68 % UTC

1076071 (kT*kA*kT*dT*dA*dG*dT*dA*dA*dT*dG*d[5mC]*dA*k[5mC]*kA*kG; antisense) [Compound 1076071]
YAP1 (% UTC) [5]: 14 % UTC

1075369 (kG*kG*kA*dG*dA*dA*dT*dA*dA*dG*d[5mC]*dA*dA*kT*k[5mC]*kA; antisense) [Compound 1075369]
YAP1 (% UTC) [9]: 31 % UTC

1076307 (kG*kT*kA*dA*dT*dT*dA*d[5mC]*d[5mC]*dT*d[5mC]*dT*dA*kA*kT*k[5mC]; antisense) [compound 1076307]
YAP1 (% UTC) (Table 33, Yap1 mRNA, percent of untreated control, 3-10-3 cEt gapmers targeting SEQ ID NO.: 1, and 2): 38 % UTC

1074354 (antisense kG*kG*kA*d[5mC]*dA*d[5mC]*dT*dG*dT*dA*dG*d[5mC]*dT*kG*k[5mC]*kT) [compound 1074354]
YAP1 (% UTC) [8]: 24 % UTC

1074469 (k[5mC]*k[5mC]*k[5mC]*dA*d[5mC]*d[5mC]*dG*dA*d[5mC]*d[5mC]*d[5mC]*dT*dG*k[5mC]*k[5mC]*kA; antisense) [Compound 1074469]
YAP1 (% UTC) [11]: 77 % UTC

1074506 (kT*kA*kA*dT*d[5mC]*dG*dA*dG*dA*dT*dT*dT*dA*kA*kA*kT; antisense) [Compound 1074506]
YAP1 (% UTC) [2]: 107 % UTC

716351 (kG*kG*kT*d[5mC]*dT*dG*dG*d[5mC]*dG*dG*d[5mC]*dT*dG*k[5mC]*kG*k[5mC]; antisense) [Compound 716351]
YAP1 (% UTC) [10]: 112 % UTC

1074952 (antisense kG*kT*kT*dT*dT*dT*dG*dT*d[5mC]*dA*dT*d[5mC]*dA*kG*kG*kT) [Compound 1074952]
YAP1 (% UTC) [13]: 42 % UTC

1075492 (antisense kG*k[5mC]*kT*dA*dA*dA*dA*dT*dG*dA*dT*dA*d[5mC]*kT*kT*k[5mC]) [Compound 1075492]
YAP1 (% UTC) [6]: 29 % UTC

1075496 (antisense kT*kT*kA*dT*dA*dT*dA*dA*dT*dG*d[5mC]*dA*dG*kG*k[5mC]*kT) [Compound 1075496]
YAP1 (% UTC) [13]: 22 % UTC

1074854 (antisense kA*k[5mC]*kA*dA*dT*dT*dG*dT*dT*dA*dT*dG*dA*kT*kA*kG) [Compound 1074854]
YAP1 (% UTC) [7]: 23 % UTC

716382 (kA*kG*k[5mC]*dA*dT*dG*dG*d[5mC]*d[5mC]*dT*dT*d[5mC]*d[5mC]*kT*kG*kG; antisense) [Compound 716382]
YAP1 (% UTC) [12]: 73 % UTC
